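96-well plates; 48 h exposure; 5 concentrations. Endpoints by linear interpolation between flanking doses. Not reached: highest tested concentration assigned. At the TGI there is no net growth.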
Experiments:
Assay in all cases: DTP human tumour cell line panel, 48 h
HL-60(TB) leukemia = test system: HL-60(TB) leukemia
EKVX NSCLC = test system: EKVX NSCLC
MOLT-4 leukemia = test system: MOLT-4 leukemia
OVCAR-3 ovarian = test system: OVCAR-3 ovarian
COLO 205 colon = test system: COLO 205 colon
DLD-1 colon = test system: DLD-1 colon
DMS 273 small cell lung = test system: DMS 273 small cell lung
KM12 colon = test system: KM12 colon
NCI-H522 lung = test system: NCI-H522 lung
LOX IMVI melanoma = test system: LOX IMVI melanoma
HCT-15 colon = test system: HCT-15 colon
CCRF-CEM leukemia = test system: CCRF-CEM leukemia
A549 NSCLC = test system: A549 NSCLC
NCI-H226 lung = test system: NCI-H226 lung
SF-539 CNS = test system: SF-539 CNS
RXF-631 renal = test system: RXF-631 renal
OVCAR-5 ovarian = test system: OVCAR-5 ovarian
KM20L2 colon = test system: KM20L2 colon
RXF 393 renal = test system: RXF 393 renal
SF-268 CNS = test system: SF-268 CNS
SK-OV-3 ovarian = test system: SK-OV-3 ovarian
SK-MEL-2 melanoma = test system: SK-MEL-2 melanoma
UACC-62 melanoma = test system: UACC-62 melanoma
HCT-116 colon = test system: HCT-116 colon
SNB-19 CNS = test system: SNB-19 CNS
K-562 leukemia = test system: K-562 leukemia
SR leukemia = test system: SR leukemia
IGROV1 ovarian = test system: IGROV1 ovarian
LXFL 529 NSCLC = test system: LXFL 529 NSCLC
OVCAR-8 ovarian = test system: OVCAR-8 ovarian
786-0 renal = test system: 786-0 renal
U251 CNS = test system: U251 CNS
M19-MEL melanoma = test system: M19-MEL melanoma
RPMI-8226 leukemia = test system: RPMI-8226 leukemia
HT29 colon = test system: HT29 colon
DMS 114 small cell lung = test system: DMS 114 small cell lung
SW-620 colon = test system: SW-620 colon
SN12C renal = test system: SN12C renal
TK-10 renal = test system: TK-10 renal
M14 melanoma = test system: M14 melanoma
UACC-257 melanoma = test system: UACC-257 melanoma
HCC-2998 colon = test system: HCC-2998 colon
UO-31 renal = test system: UO-31 renal
ACHN renal = test system: ACHN renal
SF-295 CNS = test system: SF-295 CNS
NCI-H23 lung = test system: NCI-H23 lung
HOP-62 NSCLC = test system: HOP-62 NSCLC
SNB-78 CNS = test system: SNB-78 CNS
NCI-H460 lung = test system: NCI-H460 lung
MALME-3M melanoma = test system: MALME-3M melanoma
A498 renal = test system: A498 renal
OVCAR-4 ovarian = test system: OVCAR-4 ovarian
CAKI-1 renal = test system: CAKI-1 renal
SK-MEL-28 melanoma = test system: SK-MEL-28 melanoma
SK-MEL-5 melanoma = test system: SK-MEL-5 melanoma
SNB-75 CNS = test system: SNB-75 CNS
HOP-18 NSCLC = test system: HOP-18 NSCLC
HOP-92 NSCLC = test system: HOP-92 NSCLC
XF 498 CNS = test system: XF 498 CNS

Question: For `CC(=O)c1ccc(NC(=O)C(=O)CC(=O)c2sc(-n3nc(-c4ccccc4)cc3-c3ccccc3)nc2C)cc1`, which TGI (HL-60(TB) leukemia) is on record?
Answer: The TGI was greater than 100 µM.

Question: And the TGI (EKVX NSCLC)?
Answer: Its TGI is greater than 100 µM.

Question: What about the TGI (MOLT-4 leukemia) of the same molecule?
Answer: The TGI was greater than 100 µM.

Question: What about the TGI (OVCAR-3 ovarian) of the same molecule?
Answer: The TGI was greater than 100 µM.

Question: And the TGI (COLO 205 colon)?
Answer: Its TGI is greater than 100 µM.

Question: What about the TGI (DLD-1 colon) of the same molecule?
Answer: The TGI was greater than 100 µM.

Question: And the TGI (DMS 273 small cell lung)?
Answer: The TGI was greater than 100 µM.

Question: And the TGI (KM12 colon)?
Answer: Its TGI is greater than 100 µM.

Question: What about the TGI (NCI-H522 lung) of the same molecule?
Answer: The TGI was greater than 100 µM.

Question: What about the TGI (LOX IMVI melanoma) of the same molecule?
Answer: The TGI was greater than 100 µM.

Question: And the TGI (HCT-15 colon)?
Answer: Its TGI is greater than 100 µM.

Question: What about the TGI (CCRF-CEM leukemia) of the same molecule?
Answer: Its TGI is greater than 100 µM.

Question: And the TGI (A549 NSCLC)?
Answer: The TGI was greater than 100 µM.

Question: And the TGI (NCI-H226 lung)?
Answer: Its TGI is greater than 100 µM.

Question: And the TGI (SF-539 CNS)?
Answer: The TGI was greater than 100 µM.

Question: What about the TGI (RXF-631 renal) of the same molecule?
Answer: Its TGI is greater than 100 µM.

Question: What about the TGI (OVCAR-5 ovarian) of the same molecule?
Answer: Its TGI is greater than 100 µM.

Question: What about the TGI (KM20L2 colon) of the same molecule?
Answer: Its TGI is greater than 100 µM.

Question: What about the TGI (RXF 393 renal) of the same molecule?
Answer: The TGI was greater than 100 µM.

Question: What about the TGI (SF-268 CNS) of the same molecule?
Answer: Its TGI is greater than 100 µM.

Question: And the TGI (SK-OV-3 ovarian)?
Answer: Its TGI is greater than 100 µM.

Question: And the TGI (SK-MEL-2 melanoma)?
Answer: Its TGI is greater than 100 µM.

Question: And the TGI (UACC-62 melanoma)?
Answer: The TGI was greater than 100 µM.

Question: And the TGI (HCT-116 colon)?
Answer: Its TGI is greater than 100 µM.

Question: And the TGI (SNB-19 CNS)?
Answer: Its TGI is greater than 100 µM.

Question: And the TGI (K-562 leukemia)?
Answer: Its TGI is greater than 100 µM.

Question: What about the TGI (SR leukemia) of the same molecule?
Answer: Its TGI is greater than 100 µM.

Question: What about the TGI (IGROV1 ovarian) of the same molecule?
Answer: The TGI was greater than 100 µM.

Question: And the TGI (LXFL 529 NSCLC)?
Answer: Its TGI is greater than 100 µM.

Question: And the TGI (OVCAR-8 ovarian)?
Answer: Its TGI is greater than 100 µM.

Question: And the TGI (786-0 renal)?
Answer: Its TGI is greater than 100 µM.

Question: And the TGI (U251 CNS)?
Answer: The TGI was greater than 100 µM.

Question: And the TGI (M19-MEL melanoma)?
Answer: Its TGI is greater than 100 µM.

Question: What about the TGI (RPMI-8226 leukemia) of the same molecule?
Answer: Its TGI is greater than 100 µM.

Question: And the TGI (HT29 colon)?
Answer: The TGI was greater than 100 µM.

Question: What about the TGI (DMS 114 small cell lung) of the same molecule?
Answer: The TGI was greater than 100 µM.

Question: What about the TGI (SW-620 colon) of the same molecule?
Answer: The TGI was greater than 100 µM.

Question: What about the TGI (SN12C renal) of the same molecule?
Answer: Its TGI is greater than 100 µM.

Question: What about the TGI (TK-10 renal) of the same molecule?
Answer: The TGI was greater than 100 µM.

Question: And the TGI (M14 melanoma)?
Answer: Its TGI is greater than 100 µM.

Question: And the TGI (UACC-257 melanoma)?
Answer: Its TGI is greater than 100 µM.

Question: And the TGI (HCC-2998 colon)?
Answer: The TGI was greater than 100 µM.

Question: And the TGI (UO-31 renal)?
Answer: Its TGI is greater than 100 µM.

Question: What about the TGI (ACHN renal) of the same molecule?
Answer: Its TGI is greater than 100 µM.

Question: And the TGI (SF-295 CNS)?
Answer: The TGI was greater than 100 µM.

Question: What about the TGI (NCI-H23 lung) of the same molecule?
Answer: Its TGI is greater than 100 µM.

Question: And the TGI (HOP-62 NSCLC)?
Answer: Its TGI is greater than 100 µM.

Question: And the TGI (SNB-78 CNS)?
Answer: Its TGI is greater than 100 µM.

Question: What about the TGI (NCI-H460 lung) of the same molecule?
Answer: Its TGI is greater than 100 µM.

Question: And the TGI (MALME-3M melanoma)?
Answer: Its TGI is greater than 100 µM.

Question: And the TGI (A498 renal)?
Answer: The TGI was greater than 100 µM.

Question: And the TGI (OVCAR-4 ovarian)?
Answer: The TGI was greater than 100 µM.

Question: And the TGI (CAKI-1 renal)?
Answer: Its TGI is greater than 100 µM.

Question: What does the source list for `CC1CN1c1c(C(=O)/C=C/c2ccc(F)cc2)c(-c2ccccc2)nn(C)c1=O` (configuration not stated)?
Answer: TGI (HL-60(TB) leukemia): 43 µM; TGI (EKVX NSCLC): 33.4 µM; TGI (MOLT-4 leukemia): 58.2 µM; TGI (OVCAR-3 ovarian): 28.9 µM; TGI (SK-MEL-28 melanoma): 32 µM; TGI (SK-MEL-5 melanoma): 29.5 µM; TGI (COLO 205 colon): 33 µM; TGI (DLD-1 colon): 25.4 µM; TGI (KM12 colon): 29.4 µM; TGI (LOX IMVI melanoma): 26.9 µM; TGI (CCRF-CEM leukemia): 48.8 µM; TGI (A549 NSCLC): 47.5 µM; TGI (SNB-75 CNS): 28.7 µM; TGI (NCI-H226 lung): 25.3 µM; TGI (HOP-18 NSCLC): 33.2 µM; TGI (OVCAR-5 ovarian): 25.2 µM; TGI (KM20L2 colon): 31.6 µM; TGI (RXF 393 renal): 22 µM; TGI (SF-268 CNS): 30.4 µM; TGI (SK-MEL-2 melanoma): 37.9 µM; TGI (UACC-62 melanoma): 27.6 µM; TGI (HCT-116 colon): 27.3 µM; TGI (SNB-19 CNS): 30.3 µM; TGI (IGROV1 ovarian): 40.2 µM; TGI (LXFL 529 NSCLC): 31.7 µM; TGI (OVCAR-8 ovarian): 27.6 µM; TGI (786-0 renal): 29.2 µM; TGI (U251 CNS): 28.9 µM; TGI (M19-MEL melanoma): 27.7 µM; TGI (RPMI-8226 leukemia): 32.2 µM; TGI (HT29 colon): 30.9 µM; TGI (DMS 114 small cell lung): 31.1 µM; TGI (SW-620 colon): 32.7 µM; TGI (SN12C renal): 29.1 µM; TGI (TK-10 renal): 31 µM; TGI (HOP-92 NSCLC): 23.2 µM; TGI (XF 498 CNS): 28.8 µM; TGI (M14 melanoma): 30.5 µM; TGI (UACC-257 melanoma): 27.4 µM; TGI (HCC-2998 colon): 28.7 µM; TGI (UO-31 renal): 25.5 µM; TGI (ACHN renal): 36.3 µM; TGI (SF-295 CNS): 30.2 µM; TGI (NCI-H23 lung): 27.1 µM; TGI (HOP-62 NSCLC): 38.9 µM; TGI (SNB-78 CNS): 67.3 µM; TGI (NCI-H460 lung): 36.3 µM; TGI (MALME-3M melanoma): 30 µM; TGI (OVCAR-4 ovarian): 42.7 µM

Source: PubChem BioAssay (NCI)
